From ChEMBL document CHEMBL1141324, “Saponins from the roots of Nylandtia spinosa” (J Nat Prod, 2007) come the findings set out here.

One assay has as its system HCT-116. In words: Cytotoxicity against human HCT116 cells by MTT assay. The assay is classed as functional, cell-based. On the technique in general: Formazan colour is commonly taken as a measure of viable cells.
Another assay has as its system HT-29. In words: Cytotoxicity against human HT29 cells by MTT assay. Format: functional, cell-based.

≈ marks a conversion by molar mass, not a printed value.

As usually defined, the IC50 is the concentration needed to halve the response being measured. Low values mean greater potency in that assay, high ones weaker potency in that assay. As to `C[C@@H]1O[C@H](OC(=O)[C@]23CCC(C)(C)CC2C2=CCC4[C@@]5(C)C[C@H](O)[C@H](O[C@@H]6O[C@H](CO)[C@@H](O)[C@H](O)[C@H]6O)[C@@](C)(C(=O)O)[C@@H]5CC[C@@]4(C)[C@]2(CO)CC3)[C@@H](O[C@H]2O[C@H](C)[C@@H](O[C@@H]3OC[C@@H](O[C@@H]4OC[C@](O)(CO)[C@H]4O)[C@H](O)[C@H]3O[C@H]3O[C@@H](CO)[C@@H](O)[C@@H](O)[C@@H]3O)[C@H](O)[C@@H]2O)[C@H](O)[C@@H]1O` (stereo not given in full), the IC50 in the assay on HCT-116 and in the assay on HT-29 was above 5 µg/mL in each case.

With `C[C@@H]1O[C@H](OC(=O)[C@]23CCC(C)(C)CC2C2=CCC4[C@@]5(C)C[C@H](O)[C@H](O[C@@H]6O[C@H](CO)[C@@H](O)[C@H](O)[C@H]6O)[C@@](C)(C(=O)O)[C@@H]5CC[C@@]4(C)[C@]2(CO)CC3)[C@@H](O[C@H]2O[C@H](C)[C@@H](O[C@@H]3OC[C@@H](O[C@@H]4O[C@H](CO)[C@H](O)[C@H](O)[C@H]4O)[C@H](O[C@@H]4OC[C@H](O)[C@H](O)[C@H]4O)[C@H]3O)[C@H](O)[C@@H]2O)[C@H](O)[C@@H]1O` (stereo not given in full), the concentration for half-maximal inhibition (IC50) in the assay with HCT-116 and with HT-29 was above 5 µg/mL throughout.

Regarding `C[C@@H]1O[C@H](OC(=O)[C@]23CCC(C)(C)CC2C2=CCC4[C@@]5(C)C[C@H](O)[C@H](O[C@@H]6O[C@H](CO)[C@@H](O)[C@H](O)[C@H]6O)[C@@](C)(C(=O)O)[C@@H]5CC[C@@]4(C)[C@]2(CO)CC3)[C@@H](O[C@H]2O[C@H](C)[C@@H](O[C@@H]3OC[C@@H](O)[C@H](O[C@@H]4OC[C@](O)(CO)[C@H]4O)[C@H]3O)[C@H](O)[C@@H]2O)[C@H](O)[C@@H]1O` (stereo not given in full), the half-maximal inhibitory concentration (IC50) in the assay on HCT-116 and in the assay on HT-29 was above 5 µg/mL throughout.

With `C[C@@H]1O[C@H](OC(=O)[C@]23CCC(C)(C)CC2C2=CCC4[C@@]5(C)C[C@H](O)[C@H](O[C@@H]6O[C@H](CO)[C@@H](O)[C@H](O)[C@H]6O)[C@@](C)(C(=O)O)[C@@H]5CC[C@@]4(C)[C@]2(CO)CC3)[C@@H](O[C@H]2O[C@H](C)[C@@H](O[C@@H]3OC[C@@H](O[C@@H]4O[C@H](CO)[C@H](O)[C@H](O)[C@H]4O)[C@H](O[C@@H]4OC[C@H](O)[C@H](O)[C@H]4O)[C@H]3O)[C@H](O[C@@H]3OC[C@](O)(CO)[C@H]3O)[C@@H]2O)[C@H](O)[C@@H]1O` (stereo not given in full), the IC50 in the assay with HCT-116 and in the assay on HT-29 was above 5 µg/mL each time.

As to `CC(=O)O[C@H]1C(=O)[C@@]2(C)[C@H]([C@H](OC(=O)c3ccccc3)[C@]3(O)C[C@H](OC(=O)[C@H](O)[C@@H](NC(=O)c4ccccc4)c4ccccc4)C(C)=C1C3(C)C)[C@]1(OC(C)=O)CO[C@@H]1C[C@@H]2O` [PACLITAXEL], the IC50 is 0.008 µg/mL (≈ 0.00937 µM) in the assay with HCT-116 and 0.0053 µg/mL (≈ 0.00621 µM) in the assay on HT-29.
